Common to all, as to format: cell-based, human
Experiment [1] deals with WAC2 cells. Nature of the experiment: Cell cycle analysis by flow cytometry (PI), WAC2. The note with it: WAC2, 15 μM, 24 h; for percentage of cells in the S phase: untreated 38.2 ± 1.0; for percentage of cells in G1: untreated 44.7 ± 1.6. The method, then: To evaluate cell cycle, cells (1 × 10^6) were plated and maintained in respective media with reduced FBS (4%) for cell synchronization. […] Cells were washed with phosphate-buffered saline (PBS) and fixed at 4 °C for 30 min with 100% ethanol. Following a second PBS wash, cells were stained with propidium iodide (PI, Invitrogen, Waltham, MA, USA), RNAse A (0.1 mg/mL, Qiagen, Germantown, MD, USA), and 0.1% TritonX (Active Motif, Carlsbad, CA, USA), and FACSCalibur^TM Flow Cytometer (BD Biosciences, Franklin Lakes, NJ, USA) was used for examination. FlowJo software (FlowJo, LLC, Ashland, OR, USA) was used for data analysis. Data reported as mean percentage cells in phase ± SEM.
(Flow cytometry measures light scatter and fluorescence of single cells or particles in a stream.)

The test system of experiment [2] is SK-N-AS, SK-N-BE(2), SH-EP, WAC2, COA6, COA129 cells. Briefly: alamarBlue viability, long-term cell lines and PDX cells. The note with it: increasing doses, 24 h; all cell lines. As to the method:
(§1) CellTiter 96® Aqueous One Solution Cell Proliferation assay (Promega, Madison, WI, USA) was used to examine proliferation, and alamarBlue® assay (Thermo Fisher Scientific, Inc.) was used to evaluate viability. Cells, concentrations ranging from 5 × 10^3 to 1.5 × 10^4, depending on cell type due to wide variation in growth characteristics between established cell lines and PDX cells, were plated in 96-well plates and treated with increasing doses of 792 or 1154 for 24 h. CellTiter 96® or alamarBlue® dye (10 µL) was added for proliferation and viability assays, respectively. A microplate reader (Epoch Microplate Spectrophotometer, BioTek Instruments, Winooski, VT) measured absorbance at 490 nm for CellTiter 96® and at 570 nm for alamarBlue®, using 600 nm as a reference. […] Experiments were completed with at least three biologic replicates, and data reported as fold change ± SEM.
Supplemental Figure S5: Treatment of neuroblastoma cell lines with 792 or 1154 resulted in decreased viability. Neuroblastoma cells ( 1.5 x 104 for AS, BE, SH-EP, WAC, COA6; 3 x 105 for COA129) were plated in 96-well plates and treated with increasing doses of 792 or […]
viability following increasing doses of either 792 (A) or 1154 (B). Similarly, increasing […]
PDXs. Data reported as mean fold change ± SEM, and experiments were repeated with at least three biologic replicates. […]

The subject of experiment [3] is SK-N-AS cells. Nature of the experiment: alamarBlue viability, SK-N-AS. Particulars: 24 h. The method, then:
as §1
Supplemental Figure S3: Novel PP2A activating compounds decrease d neuroblastoma proliferation and viability. SK-N-AS and SK-N-BE(2) cells (1.5 x 104) were plated in 96-well plates and treated with increasing doses of nine PP2A activating compounds for 24 […]
novel PP2A activators tested in (A) SK-N-AS and (B) SK-N-BE(2) cells. Similarly, PP2A […]
(D) SK-N-BE(2) cells. Data reported as mean fold change ± SEM, and experiments were repeated with at least three biologic replicates. […]
In general terms: Alamar Blue is a resazurin reagent that responds to reducing activity.

In experiment [4] the test system is SK-N-AS, SK-N-BE(2), SH-EP, WAC2 cells. Nature of the experiment: Monolayer wound healing (scratch) migration assay. Particulars: 36 h; 792 10 μM SK-N-AS, 15 μM others; 1154 10 μM SK-N-AS and SK-N-BE(2), 15 μM SH-EP and WAC2. The method, then:
Since the established neuroblastoma cell lines grow as adherent cells, migration in SK-N-AS, SK-N-BE(2), SH-EP, and WAC2 cells was examined using monolayer wound healing (scratch) assay. […] Once cells reached 80% confluence, a sterile 200 μL pipette tip was used to make a standard scratch in the cell layer. Photographs of the plates were obtained at 0, 12, 24, and 36 h. ImageJ MRI Wound Healing Tool (http://imagej.nih.gov/ij/ (accessed on 14 October 2019) quantified the open wound area, and data reported as fold change of the open area ± SEM. Invasion was evaluated with a modified Boyden chamber technique. The insert bottoms were coated with collagen type I (10 µg/mL, MP Biomedicals, Santa Ana, CA, USA). The insert tops were coated with a layer of Matrigel^TM (1 mg/mL, 50 μL, BD Biosciences). Cells were treated for 24 h with 792 (SK-N-AS 10 μM; SK-N-BE(2), SH-EP, WAC2 15 μM) or 1154 (SK-N-AS, SK-N-BE(2) 10 μM; SH-EP, WAC2 15 μM), plated (4 × 10^4 cells), and allowed to invade through the membrane for 24 h. Insert membranes were fixed using 4% paraformaldehyde, stained with 1% crystal violet for 15 min, photographed, and invasion quantified with ImageJ (http://imagej.nih.gov/ij/ (accessed on 10 September 2019)). Invasion data were reported as mean percent membrane occupied by cells ± SEM. Experiments were completed with at least three biologic replicates.

Experimental findings from article PMC9026148, “Pre-Clinical Study Evaluating Novel Protein Phosphatase 2A Activators as Therapeutics for Neuroblastoma” (Cancers, 2022) are described below.

For `O=S(=O)(NC1CCCC(N2c3ccccc3CCc3ccccc32)C1O)c1ccc(OC(F)(F)F)cc1` (stereo not shown) [DBK-1154], in experiment [1], the “Mean % G1 (± SEM)” value is 49.6 (± 2.4) %, the “Mean % G2 (± SEM)” value is on record as 19.0 (± 1.5) %, the “Mean % S (± SEM)” value is 28.4 (± 1.6) % and the percentage of cells in the S phase was found to be 28.4 ± 1.6%. The percentage of cells in G1 in experiment [1] stood at 49.6 ± 2.4%. Moreover, the viability result in experiment [2] is “significantly decreased viability”. The LD50 in experiment [3] stood at 13.9 µM. Further, in experiment [4], the “Migration (fold change of open wound area)” value was “significantly decreased”.
As to `O=S(=O)(N[C@H]1COC[C@@H](n2c3ccc(Cl)cc3c3cc(Cl)ccc32)[C@@H]1O)c1ccc(OC(F)(F)F)cc1` [ATUX-792], in experiment [1], the “Mean % G1 (± SEM)” value is 54.5 (± 2.3) %, the “Mean % G2 (± SEM)” value is 14.3 (± 1.1) %, the “Mean % S (± SEM)” value is 25.4 (± 2.5) % and the percentage of cells in the S phase was determined as 25.4 ± 2.5%. Moreover, the percentage of cells in G1 in experiment [1] came out at 54.5 ± 2.3%. In addition, in experiment [2], the viability entry is “significantly decreased viability”. In experiment [3], this compound gave an LD50 of 12.2 µM. Besides, the “Migration (fold change of open wound area)” value in experiment [4] is recorded as “significantly decreased”.
